Test results as given in PubChem BioAssay (NCI).
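Growth conditions: 96-well plates. Treatment: test compound, 48 hours, 5 concentrations. Analysis: linear interpolation between bracketing concentrations; unreached endpoints set to highest concentration. GI50: concentration for 50% inhibition of growth. The concentration for full growth arrest is given as TGI.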

Legend:
Assay in all cases: inhibition of tumour cell growth, NCI panel, 48 h; in the data active = GI50 below about 0.43 µM; inactive = the rest
[1] = test system: SK-MEL-5 melanoma
[2] = test system: SR leukemia
[3] = test system: RPMI-8226 leukemia
[4] = test system: NCI-H522 lung
[5] = test system: NCI-H226 lung
[6] = test system: SF-539 CNS
[7] = test system: SF-268 CNS
[8] = test system: SN12C renal
[9] = test system: MOLT-4 leukemia
[10] = test system: BT-549 breast
[11] = test system: NCI/ADR-RES ovarian
[12] = test system: SNB-75 CNS
[13] = test system: MCF7 breast
[14] = test system: HT29 colon
[15] = test system: UACC-257 melanoma
[16] = test system: 786-0 renal
[17] = test system: COLO 205 colon
[18] = test system: HCC-2998 colon
[19] = test system: OVCAR-4 ovarian
[20] = test system: MALME-3M melanoma
[21] = test system: HOP-92 NSCLC
[22] = test system: SK-MEL-2 melanoma
[23] = test system: HL-60(TB) leukemia
[24] = test system: UO-31 renal
[25] = test system: NCI-H460 lung
[26] = test system: OVCAR-3 ovarian
[27] = test system: K-562 leukemia
[28] = test system: A498 renal
[29] = test system: OVCAR-5 ovarian
[30] = test system: IGROV1 ovarian
[31] = test system: HS 578T breast
[32] = test system: EKVX NSCLC
[33] = test system: CAKI-1 renal
[34] = test system: DU-145 prostate
[35] = test system: KM12 colon
[36] = test system: A549 NSCLC
[37] = test system: T-47D breast
[38] = test system: SF-295 CNS
[39] = test system: HOP-62 NSCLC
[40] = test system: SK-MEL-28 melanoma
[41] = test system: OVCAR-8 ovarian
[42] = test system: TK-10 renal
[43] = test system: HCT-15 colon
[44] = test system: NCI-H23 lung
[45] = test system: SW-620 colon
[46] = test system: CCRF-CEM leukemia
[47] = test system: SNB-19 CNS
[48] = test system: ACHN renal
[49] = test system: U251 CNS
[50] = test system: UACC-62 melanoma
[51] = test system: MDA-MB-231 breast
[52] = test system: SK-OV-3 ovarian
[53] = test system: HCT-116 colon
[54] = test system: PC-3 prostate
[55] = test system: RXF 393 renal
[56] = test system: M14 melanoma
[57] = test system: MDA-MB-435
[58] = test system: LOX IMVI melanoma

COc1cc(/C=C2\CN(S(=O)(=O)c3ccc(C)cc3)C/C(=C\c3cc(CN4CCOCC4)c(O)c(OC)c3)C2=O)cc(CN2CCOCC2)c1O
27.4 µM: TGI [23]
22.8 µM: TGI [30]
15.5 µM: TGI [8]
active: GI50 [2] 0.342 µM | GI50 [9] 0.321 µM | GI50 [13] 0.394 µM | GI50 [14] 0.346 µM | GI50 [25] 0.337 µM | GI50 [35] 0.377 µM | GI50 [41] 0.323 µM
16.4 µM: TGI [50]
25.5 µM: TGI [35]
67.2 µM: TGI [10]
81.2 µM: TGI [7]
65.8 µM: TGI [20]
19.8 µM: TGI [31]
59.8 µM: TGI [42]
85.8 µM: TGI [5]
2.52 µM: TGI [25]
33 µM: TGI [6]
71.8 µM: TGI [21]
21.7 µM: TGI [18]
65.1 µM: TGI [22]
40.2 µM: TGI [38]
56.5 µM: TGI [52]
29.5 µM: TGI [55]
92.5 µM: TGI [32] | TGI [51]
> 100 µM: TGI [1] | TGI [2] | TGI [3] | TGI [9] | TGI [11] | TGI [13] | TGI [14] | TGI [15] | TGI [17] | TGI [19] | TGI [24] | TGI [26] | TGI [27] | TGI [29] | TGI [33] | TGI [34] | TGI [36] | TGI [37] | TGI [40] | TGI [41] | TGI [43] | TGI [44] | TGI [45] | TGI [46] | TGI [47] | TGI [49] | TGI [53] | TGI [54] | TGI [56]
19.1 µM: TGI [12]
38 µM: TGI [39]
22.5 µM: TGI [48]
inactive: GI50 [1] 4.15 µM | GI50 [3] 2.34 µM | GI50 [4] 2.34 µM | GI50 [5] 12.7 µM | GI50 [6] 7.21 µM | GI50 [7] 0.935 µM | GI50 [8] 0.524 µM | GI50 [10] 17.6 µM | GI50 [11] 55 µM | GI50 [12] 0.527 µM | GI50 [15] 2.06 µM | GI50 [16] 17.9 µM | GI50 [17] 1.66 µM | GI50 [18] 2.05 µM | GI50 [19] 4.11 µM | GI50 [20] 1.75 µM | GI50 [21] 17.6 µM | GI50 [22] 21.9 µM | GI50 [23] 0.853 µM | GI50 [24] 20.4 µM | GI50 [26] 0.611 µM | GI50 [27] 0.561 µM | GI50 [28] 12.4 µM | GI50 [29] > 100 µM | GI50 [30] 1.09 µM | GI50 [31] 0.721 µM | GI50 [32] 16.9 µM | GI50 [33] 1.53 µM | GI50 [34] 0.928 µM | GI50 [36] 13 µM | GI50 [37] 51.7 µM | GI50 [38] 12.5 µM | GI50 [39] 0.652 µM | GI50 [40] 4.85 µM | GI50 [42] 15.4 µM | GI50 [43] 1.9 µM | GI50 [44] 3.31 µM | GI50 [45] 1.35 µM | GI50 [46] 0.513 µM | GI50 [47] 15.8 µM | GI50 [48] 1.47 µM | GI50 [49] 0.782 µM | GI50 [50] 0.586 µM | GI50 [51] 2.27 µM | GI50 [52] 7.89 µM | GI50 [53] 3.25 µM | GI50 [54] 1.24 µM | GI50 [55] 2.81 µM | GI50 [56] 0.689 µM
59.4 µM: TGI [16]
32.6 µM: TGI [4]
54.4 µM: TGI [28]

O=C(CNC(=O)c1ccccc1)Oc1c(Cl)c(Cl)c(Cl)c(Cl)c1Cl
95.1 µM: TGI [6]
83.8 µM: TGI [4]
49.9 µM: TGI [34]
> 100 µM: TGI [2] | TGI [7] | TGI [8] | TGI [9] | TGI [12] | TGI [13] | TGI [14] | TGI [16] | TGI [17] | TGI [19] | TGI [25] | TGI [27] | TGI [29] | TGI [58] | TGI [36] | TGI [37] | TGI [39] | TGI [40] | TGI [43] | TGI [44] | TGI [46] | TGI [47] | TGI [49] | TGI [52] | TGI [53] | TGI [55] | TGI [56]
66.1 µM: TGI [51]
60.6 µM: TGI [18]
45.2 µM: TGI [24]
77.5 µM: TGI [23]
65.1 µM: TGI [48]
63.5 µM: TGI [30]
78.3 µM: TGI [3]
53.3 µM: TGI [26]
67.1 µM: TGI [45]
58.1 µM: TGI [10]
45.6 µM: TGI [35]
79.9 µM: TGI [38]
88.6 µM: TGI [5]
57.1 µM: TGI [20]
94.1 µM: TGI [22] | TGI [57] | TGI [42]
64 µM: TGI [41]
53.8 µM: TGI [50]
61.4 µM: TGI [54]
54.9 µM: TGI [15] | TGI [33]
67.6 µM: TGI [31]
48 µM: TGI [32]
82.5 µM: TGI [11]

CCOC(=O)/C(=N/Nc1ccc(C)cc1)N1C(=S)C=C(C)NN(C)C1=S
> 100 µM: TGI [1] | TGI [2] | TGI [3] | TGI [4] | TGI [6] | TGI [7] | TGI [8] | TGI [9] | TGI [10] | TGI [11] | TGI [12] | TGI [13] | TGI [14] | TGI [15] | TGI [17] | TGI [18] | TGI [19] | TGI [21] | TGI [22] | TGI [23] | TGI [24] | TGI [25] | TGI [26] | TGI [27] | TGI [57] | TGI [29] | TGI [30] | TGI [31] | TGI [32] | TGI [33] | TGI [34] | TGI [35] | TGI [36] | TGI [37] | TGI [40] | TGI [41] | TGI [42] | TGI [43] | TGI [44] | TGI [45] | TGI [46] | TGI [47] | TGI [48] | TGI [50] | TGI [51] | TGI [52] | TGI [53] | TGI [56]
39.3 µM: TGI [38]
55.5 µM: TGI [49]
83.7 µM: TGI [55]
